Values of other authors as cited in US7378109B2, “Pharmaceutical composition for improving palatability of drugs and process for preparation thereof” (Council of Scientific and Industrial Research, priority 2004, dated 2008).

Conditions: humans, oral

CO/N=C(\C(=O)N[C@@H]1C(=O)N2C(C(=O)OC(C)OC(C)=O)=C(COC(N)=O)CS[C@H]12)c1ccco1 (stereo partly shown) [Cefuroxime axetil]
bioavailability: 32-50%
